Experimental data taken from patent US20230310372A1 (Amarin Pharmaceuticals Ireland Limited, priority 2013, published 2023).
Values joined by “and” are separate entries in the source; they are usually repeats but may differ in a detail not shown here. Equal entries are not always repeated.

Experiment: Phase 1, open-label, crossover drug-drug interaction study: steady-state plasma pharmacokinetics of atorvastatin and its two active metabolites with or without ethyl eicosapentaenoate
Conditions: for Effect of co-administration of ethyl eicosapentaenoate on Tmax: atorvastatin 80 mg alone versus with 4 g ethyl eicosapentaenoate; for Change of mean plasma concentrations over time: subjects concomitantly administered 4 g of ethyl eicosapentaenoate, FIG. 1B, 1C
Description: Data for Cmax and AUC0-24 are reported as means (SD); data for Tmax are reported as median values.

[1] = 80 mg atorvastatin co-administered with 4 g ethyl eicosapentaenoate
[2] = atorvastatin + ethyl eicosapentaenoate group divided by atorvastatin only group
[3] = atorvastatin + ethyl eicosapentaenoate versus atorvastatin only

SMILES | AUC0-24, mean (80 mg atorvastatin alone) | Cmax, mean (80 mg atorvastatin alone) | Tmax, median (80 mg atorvastatin alone) | AUC0-24, mean [1] | Cmax, mean [1] | Tmax, median [1] | AUC0-24, LSGM (least squares geometric mean) (A + EPA = atorvastatin (80 mg) co-administered with ethyl eicosapentaenoate (4 g)) | Effect of co-administration of ethyl eicosapentaenoate on Tmax | AUC0-24, Ratio of LSGM [2] | Cmax, Ratio of LSGM [2] | AUC0-24, 90% CI of the ratio [3] | Cmax, 90% CI of the ratio [3] | Change of mean plasma concentrations over time
CC(C)c1c(C(=O)Nc2ccccc2O)c(-c2ccccc2)c(-c2ccc(F)cc2)n1CCC(O)CC(O)CC(=O)O (stereo not drawn) [2-Hydroxyatorvastatin, 2-hydroxyatorvastatin] | 213.1 ng·h/mL | 43.2 ng/mL | 1.25 h | 196.7 ng·h/mL | 44.5 ng/mL | 1.25 h | 30.9 ng·h/mL | did not significantly affect | 0.91 and 0.92 | 1.04 and 0.97 | 82.8-99.7 and 82.3-103 | 89.1-121 and 80.0-117 | did not significantly change
CC(C)c1c(C(=O)Nc2ccc(O)cc2)c(-c2ccccc2)c(-c2ccc(F)cc2)n1CC[C@@H](O)C[C@@H](O)CC(=O)O [4-Hydroxyatorvastatin, 4-hydroxyatorvastatin] | 36.7 ng·h/mL | 4.1 ng/mL | 1.50 h | 34.3 ng·h/mL | 4.2 ng/mL | 1.50 h | – | did not significantly affect | – | – | – | – | did not significantly change
